The subject of assay [1] is RARs and RXRs. The assay can be described thus: binding to baculovirus-derived RARs and RXRs (overall finding in words). Particulars: RARα,β,γ and RXRα,β,γ; for binding to RARs and RXRs (in words): saturation binding. The source says:
Exp. Stat. Bull., No. 155 (1987).
[…]. […] […].

Assay [2] relates to RARs and RXRs. Particulars: Heyman et al., Cell, 68:397 (1992); cited from earlier work.

For the molecule `CC1=C(/C=C/C(C)=C\C=C\C(C)=C\C(=O)O)C(C)(C)CCC1` [9-cis RA, 9-cis retinoic acid], the “activity on the retinoid receptors (in words, per Table 1)” value in the assay with RARs and RXRs [1] is recorded as “active on all six known retinoid receptors”. The “binding to RARs and RXRs (in words)” value is “binds to the RARs and RXRs with high affinity in a saturable and specific manner” in the assay on RARs and RXRs [1] (listed as 9-cis retinoic acid); “effectively binds to all six receptors” in the assay on RARs and RXRs [1] (listed as 9-cis-retinoic acid). In addition, the “binding to and modulating gene expression via the RARs and RXRs” value in the assay on RARs and RXRs [2] is “capable of binding to and modulating gene expression via the RARs and RXRs”.

For `CC1=C(/C=C/C(C)=C/C=C/C(C)=C/C(=O)O)C(C)(C)CCC1` [ATRA, all-trans retinoic acid], in the assay with RARs and RXRs [1], the “activity on the retinoid receptors (in words, per Table 1)” value is “only active on RARα,β,γ”; the “binding to RARs and RXRs (in words)” value is on record as “only binds to the RARs”.
